Data reported in US20240148819A1, “COMPOUNDS FOR USE IN THE TREATMENT OF SINUSITIS, PNEUMONIA OR OTITIS” (PHARMA HOLDINGS AS, priority 2021, published 2024).
≈ marks a conversion by molar mass, not a printed value. Where “and” joins values, the source holds several entries; their conditions need not be identical. Identical values can stand only once. Like-named read-outs stand apart in the source and are kept apart here.

Tests used:
[1] = test system: SARS-CoV-2 Isolate England02/2020; assay type: cell-based
[2] = test system: Haemophilus influenzae
Experimental: (§1) Bacterial and fungal isolates used in this study were from various sources worldwide stored at GR Micro Ltd. and maintained, with minimal sub-culture, deep frozen at −70° C. as a dense suspension in a high protein matrix of undiluted horse serum.
(§2) Minimum inhibitory concentration (MIC) of LTX-109 was determined using the following microbroth dilution methods for antimicrobial susceptibility testing published by the Clinical and Laboratory Standards Institute (CLSI, formerly NCCLS): • M7-A6 Vol. 23 No. 2 Jan. 2003 Methods for Dilution Antimicrobial Susceptibility Tests for Bacteria that Grow Aerobically; Approved Standard-Sixth Edition. National Committee for Clinical Laboratory Standards. • M100-S15 Vol. 25 No 1. January 2005 Performance Standards for Antimicrobial Susceptibility Testing; Fifteenth Informational Supplement. Clinical and Laboratory Standards Institute • M11-A6 Vol. 24 No. 2 Methods for Antimicrobial Susceptibility Testing of Anaerobic Bacteria; Approved Standard-Sixth Edition. National Committee for Clinical Laboratory Standards. • M27-A2 Vol. 22 No. 15 Reference Method for Broth Dilution Antifungal Susceptibility Testing of Yeasts; Approved Standard-Second Edition. National Committee for Clinical Laboratory Standards. • M38-A Vol. 22 No. 16 Reference Method for Broth Dilution Antifungal Susceptibility Testing of Filamentous Fungi; Approved Standard. National Committee for Clinical Laboratory Standards.
(§3) MIC estimations were performed using wet plates, containing the LTX-109, prepared at GR Micro Ltd.
(§4) Following normal practice all the plates containing Mueller-Hinton broth were prepared in advance, frozen at −70° C. on the day of preparation and defrosted on the day of use. Fungal, Haemophilus and anaerobic MIC determinations were all performed in plates prepared on the same day.

[3] = test system: Vero cells; details: 1% LTX-109 (w/v), 1 h, after filtration, no virus
Experimental: (§7) A parallel test where the same procedure was carried out in the absence of virus was included to determine any residual cytotoxic effect of the formulation on the assay cells.

[4] = test system: Hep2 cells; details: 1 h, after filtration, no virus
Experimental: as §7

[5] = test system: Candida parapsilosis; details: Candida parapsilosis - ATCC90018 - reference strain
Experimental: as §1, §2, §3
(§5) Yeast and filamentous fungal MIC were performed in MOPS buffered RPMI 1640 medium (MOPS buffer obtained from Sigma Aldrich Ltd., RPMI 1640 obtained from Invitrogen Ltd, Paisley, Scotland). The yeast inocula were in the range 7.5×10^2-4×10^3 CFU/mL and the filamentous fungi approximately 8×10^3-1×10^5 CFU/mL.
as §4

[6] = test system: Candida albicans
Experimental: as §1, §2, §3, §5, §4

[7] = test system: Aspergillus niger; details: Aspergillus niger - G. R. Micro collection
Experimental: as §1, §2, §3, §5, §4

[8] = test system: Candida tropicalis; details: Candida tropicalis - ATCC750 - reference strain
Experimental: as §1, §2, §3, §5, §4

[9] = test system: Candida krusei; details: Candida krusei - ATCC6258 - reference strain
Experimental: as §1, §2, §3, §5, §4

[10] = test system: Moraxella catarrhalis
Experimental: as §1, §2, §3
(§6) Cation-adjusted Mueller-Hinton broth (Oxoid Ltd., Basingstoke, UK and Trek Diagnostic Systems Ltd., East Grinstead, UK) (supplemented with 5% laked horse blood for Streptococcus spp.) was used for aerobic bacteria, with an initial inoculum of approximately 10^5 colony-forming units (CFU)/mL.
as §4

[11] = test system: Streptococcus pyogenes; details: Streptococcus pyogenes - macrolide (MLS) resistant clinical isolate
Experimental: as §1, §2, §3, §6, §4

[12] = test system: Streptococcus pneumoniae
Experimental: as §1, §2, §3, §6, §4

[13] = test system: MDCK-II cells; details: 1% LTX-109 (w/v) in PBS, 1 h, after filtration, no virus; dilution up to which cytotoxicity on MDCK-II cells was seen
Experimental: as §7

[14] = test system: Pseudomonas aeruginosa; details: Pseudomonas aeruginosa - ATCC 27853 - antibiotic-susceptible type strain; three replicates (frozen and fresh MHB plates)
Experimental: as §1
as §2, with “Standard-Second Edition. […] National Committee” for “Standard-Second Edition. National Committee”, “Laboratory Standards.” for “Laboratory Standards. • M38-A Vol. 22 No. 16 Reference Method for Broth Dilution Antifungal Susceptibility Testing of Filamentous Fungi; Approved Standard. National Committee for Clinical Laboratory Standards.”
MIC estimations were performed using wet plates, containing the LTX-109, prepared at GR Micro Ltd. […]

[15] = test system: HeLa cells; assay: Parallel test without virus for residual cytotoxicity (Example 7); assay type: cell-based, human; details: 3% LTX-109 (w/v) or 0.25% SDS, after dilution (50 μl in 5 ml), no virus
Experimental: as §7

[16] = test system: Influenza A virus (IAV; A/WSN/33); assay type: cell-based
[17] = test system: Rhinovirus 60, 2268-CV37; assay: TCID50 assay after 1 h incubation of virus with 1% LTX-109 (Example 6); assay type: cell-based

With `CC(C)(C)c1cc(C(C)(C)C)c2[nH]c(C(C)(C)C)c(CC(NC(=O)C(N)CCCNC(=N)N)C(=O)NC(CCCNC(=N)N)C(=O)NCCc3ccccc3)c2c1` (centres unmarked) [LTX-109] the Log [1] was 2.28, the Percentage [1] was 99.99% and 99.995% and the MIC ([2]; Haemophilus influenzae - β-lactamase negative clinical isolate) was 8 µg/mL (≈ 10.2 µM). The MIC ([2]; Haemophilus influenzae - β-lactamase negative, ampicillin resistant) was 8 µg/mL (≈ 10.2 µM), the MIC ([2]; Haemophilus influenzae - β-lactamase positive clinical isolate) was 8 µg/mL (≈ 10.2 µM) and the “With Filtration (cytotoxicity)” value [3] was “Up to 10^−1”. For the same molecule, the “With Filtration (cytotoxicity)” value ([4]; 0.1% LTX-109 (w/v)) was “No cytotoxicity”, the “With Filtration (cytotoxicity)” value ([4]; 1% LTX-109 (w/v)) was “Up to 10^−1” and the MIC [5] was 16 µg/mL (≈ 20.3 µM). For the same molecule, the MIC ([6]; Candida albicans - ATCC24433 - reference strain) was 8 µg/mL (≈ 10.2 µM), the MIC ([6]; Candida albicans - ATCC90028 - reference strain) was 8 µg/mL (≈ 10.2 µM) and the MIC [7] was 8 µg/mL (≈ 10.2 µM). The MIC [8] was 4 µg/mL (≈ 5.08 µM), the MIC [9] was 4 µg/mL (≈ 5.08 µM) and the MIC ([10]; Moraxella catarrhalis - reduced fluoroquinolone susceptibility clinical isolate) was 8 µg/mL (≈ 10.2 µM). For the same molecule, the MIC ([10]; Moraxella catarrhalis - β-lactamase positive clinical isolate) was 4 µg/mL (≈ 5.08 µM), the MIC [11] was 16 µg/mL (≈ 20.3 µM) and the MIC ([12]; Streptococcus pneumoniae - multi-drug resistant clinical isolate) was 32 µg/mL (≈ 40.6 µM). It also gave an MIC ([12]; Streptococcus pneumoniae - penicillin intermediate clinical isolate) of 32 µg/mL (≈ 40.6 µM), an MIC ([12]; Streptococcus pneumoniae - penicillin resistant clinical isolate) of 16 µg/mL (≈ 20.3 µM) and an MIC ([12]; Streptococcus pneumoniae - penicillin susceptible clinical isolate) of 32 µg/mL (≈ 40.6 µM). For the same molecule, the “With Filtration (cytotoxicity)” value [13] was “Up to 10^−1”, the MIC [14] was 8 µg/mL (≈ 10.2 µM) and the Cytotoxicity [15] was “Neat”. For the same molecule, the Log [16] was 1.20, the Percentage [16] was 99.9% and 99.969% and the Log decrease ([17]; Rhinovirus, 1% LTX-109 or 0.25% SDS, 1 hour, compared to PBS control) was 1.9 log. It also gave a Percentage ([17]; decrease in Rhinovirus infectivity, 1% LTX-109 or 0.25% SDS, 1 hour, compared to PBS control) of 98.89% and a Log ([17]; log of Rhinovirus titre after 1 hour with 1% LTX-109 or 0.25% SDS) of 3.7.
